Test results from patent EP4218772A1, “LITHIUM SALT FOR USE IN TREATMENT OF PULMONARY HYPERTENSION” (Charité - Universitätsmedizin Berlin, priority 2022, dated 2023).

Test system: C57BL/6-mice
Description: Animal experiments: • General: 10-12 week old male C57BL/6-mice were kept at normoxia or in a hypoxia chamber at 10% O2 for five weeks and got either regular chow or chow containing 0.2% Li2CO3. • IFT88 knock-out in mice: IFT88-flox mice were bred with Cdh5-cre mice. 2 weeks prior to treatment, IFT88fl/fl, Cdh5-cre+ and Cdh-cre- mice were intraperitoneally injected with tamoxifen (75 mg/kg body weight) to induce knock-out. • Echocardiography: Mice were anesthetized with initially 3% isoflurane. The animals are fixed in dorsal position and their thoracal hair was removed with depilatory cream. Pulmonary artery flow, tricuspid valve movement and other echocardiographic parameters were assessed with the echo device Vevo3100. • RVSP measurement: After five weeks, the mice got an intraperitoneal injection of ketamin (200 mg/kg bodyweight (bw)) and xylazine (10 mg/kg bw). A 2F microtip millar catheter was advanced into the right ventricle via the jugularis vein to measure right ventricle systolic pressure (RVSP).

## lithium carbonate [Li2CO3]
Chow containing 0.2% Li2CO3, hypoxia 10% O2 for five weeks
  right ventricular systolic blood pressure: reduced the increase
Food with 0.2% Li2CO3, 10% O2 for 5 weeks, Fig. 1D
  development of a PH under chronic hypoxia: prevents the development of a PH
